Drawing on patent US20250186475A1, “METHODS OF TREATING MEDICAL CONDITIONS USING ISLATRAVIR OR A RELATED COMPOUND” (ROME Therapeutics, Inc., priority 2022, published 2025), this text covers IC50 for one compound.

In this experiment the test system is KYSE-410 cells. The experiment in a line: Cancer cell viability assay with 3D cell colonies (CellTiter-Glo), KYSE-410. Format: cell-based. To be noted: Homo sapiens, KYSE-410, 168 h, 7 days. On the procedure: Ovarian cancer cell line SK-OV-3 cells were cultured in McCoy's 5a media containing 10% FBS. Ovarian cancer cell line OVCAR-8 cells were cultured in RPMI media containing 10% FBS. Additional cancer cell lines were cultured in the following media: • Ovarian cancer SW756 cells—L-15 (100% air)+10% FBS • Esophageal cancer TE-1 cells—RPMI-1640+10% FBS • Esophageal cancer KYSE-410 cells—RPMI-1640+5˜10% FBS • Esophageal cancer KYSE-70 cells—RPMI-1640+10% h.i.FBS. • Pharyngeal cancer FaDu cells—MEM+0.01 mM NEAA+10% FBS
Cell colony formation was tested using a 3D methylcellulose-based CellTiter-Glo (CTG) viability assay (Cat. No: G7573, Promega). Briefly, cells were inoculated into 96-well plates (at 1,500 cells per well) into a solution of 0.65% methylcellulose in growth media and incubated overnight at 37° C. in 5% CO2. The next day, serially diluted test compound (islatravir) or positive control (cisplatin, Cat. No. 6J015A89, Qilu Pharma) were added at the indicated concentrations, and the cells were incubated for 7 days. On day seven, 100 μL of CTG reagent was added, and the plates were incubated at room temperature for 20 min. Luminescence was read on an Envision Multi Label Reader according to manufacturer's instructions. IC50 values were determined using the following calculation: […]
In general terms: Cellular ATP, detected with luciferase, serves as a proxy for viable cell number.

By IC50 is commonly meant the concentration at which inhibition is half-maximal. Lower therefore signals inhibition by little substance.

A value given as a limit tells only on which side of the number the result lay.

Compound `C#C[C@]1(CO)O[C@@H](n2cnc3c(N)nc(F)nc32)C[C@@H]1O` [Islatravir, (2R,3S,5R)-5-(6-amino-2-fluoro-9H-purin-9-yl)-2-ethynyl-2-(hydroxymethyl)tetrahydrofuran-3-ol] registered an IC50 of over 30 µM.
